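All cell lines were grown in 96-well plates and treated with compound for 48 hours. TGI: total growth inhibition.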
What was measured:
Experiment in all cases: NCI anticancer screen, dose series, 48 h
SF-295 CNS = tested on: SF-295 CNS
MDA-MB-435 = tested on: MDA-MB-435
CAKI-1 renal = tested on: CAKI-1 renal
SF-539 CNS = tested on: SF-539 CNS
786-0 renal = tested on: 786-0 renal
PC-3 prostate = tested on: PC-3 prostate
DU-145 prostate = tested on: DU-145 prostate
SK-MEL-5 melanoma = tested on: SK-MEL-5 melanoma
MDA-MB-231 breast = tested on: MDA-MB-231 breast
SF-268 CNS = tested on: SF-268 CNS
SW-620 colon = tested on: SW-620 colon
BT-549 breast = tested on: BT-549 breast
CCRF-CEM leukemia = tested on: CCRF-CEM leukemia
RXF 393 renal = tested on: RXF 393 renal
NCI-H23 lung = tested on: NCI-H23 lung
SK-MEL-28 melanoma = tested on: SK-MEL-28 melanoma
MDA-N = tested on: MDA-N
HL-60(TB) leukemia = tested on: HL-60(TB) leukemia
OVCAR-3 ovarian = tested on: OVCAR-3 ovarian
OVCAR-4 ovarian = tested on: OVCAR-4 ovarian

| SMILES | TGI (SF-295 CNS) [µM] | TGI (MDA-MB-435) [µM] | TGI (CAKI-1 renal) [µM] | TGI (SF-539 CNS) [µM] | TGI (786-0 renal) [µM] | TGI (PC-3 prostate) [µM] | TGI (DU-145 prostate) [µM] | TGI (SK-MEL-5 melanoma) [µM] | TGI (MDA-MB-231 breast) [µM] | TGI (SF-268 CNS) [µM] | TGI (SW-620 colon) [µM] | TGI (BT-549 breast) [µM] | TGI (CCRF-CEM leukemia) [µM] | TGI (RXF 393 renal) [µM] | TGI (NCI-H23 lung) [µM] | TGI (SK-MEL-28 melanoma) [µM] | TGI (MDA-N) [µM] | TGI (HL-60(TB) leukemia) [µM] | TGI (OVCAR-3 ovarian) [µM] | TGI (OVCAR-4 ovarian) [µM] |
| --- | --- | --- | --- | --- | --- | --- | --- | --- | --- | --- | --- | --- | --- | --- | --- | --- | --- | --- | --- | --- |
| CC(C)C1OC23CCCCC2C(C#N)(C#N)C1(C#N)C(=N)O3 (centres undefined) | > 100 | 80.6 | 22.4 | 39.4 | 34.4 | > 100 | 94.8 | 35.7 | 39.7 | 46.6 | 99.3 | 39.8 | > 100 | 46.4 | 85.8 | 87.3 | 32.7 | 30.8 | 59.8 | – |
| C=CCNC1=C2C[C@@H](C)C[C@@H](OC)[C@H](OC(=O)CCCCN)[C@H](C)/C=C(\C)[C@@H](OC(N)=O)[C@H](OC)/C=C\C=C(/C)C(=O)NC(=CC1=O)C2=O | 29.9 | 25.6 | 33.2 | – | 26.5 | – | 18.5 | 25.5 | 27.7 | 32.8 | 55.1 | 33.4 | 56.4 | 29.2 | 30 | 36.9 | 22 | 30.3 | 7.66 | 30.8 |
| C[C@@H]1C[C@H]2[C@@H]3CCC4=CC(=O)C=C[C@]4(C)[C@@]3(Cl)[C@@H](Cl)C[C@]2(C)[C@@]1(O)C(=O)COP(=O)(O)O | > 100 | > 100 | > 100 | – | > 100 | > 100 | > 100 | > 100 | > 100 | > 100 | > 100 | > 100 | – | > 100 | > 100 | > 100 | > 100 | – | > 100 | > 100 |
| COC(=O)Cc1cc(O)c(C/C=C(\C)CC/C=C(\C)C(O)C(=O)C=C(C)C)cc1O (centres undefined) | 55.1 | 45.4 | – | 40.5 | > 100 | 87.7 | > 100 | 40.4 | 78.3 | 40.6 | 87.8 | 72.8 | 10.3 | 30 | 93.3 | – | > 100 | 12 | 42.5 | > 100 |
| COc1ccc(N=C2SC(=N/N=c3\sc4ccccc4n3C)SC2=Nc2ccc(OC)cc2)cc1 | > 100 | > 100 | > 100 | > 100 | > 100 | > 100 | > 100 | > 100 | 66 | > 100 | > 100 | > 100 | – | > 100 | > 100 | > 100 | > 100 | – | > 100 | – |
| CCOC(=O)C1=C(C)N(C)C23OC4(C(=O)OC)CC2c2ccccc2C1N3C4=O (centres undefined) | > 100 | > 100 | > 100 | > 100 | > 100 | > 100 | > 100 | > 100 | > 100 | > 100 | > 100 | > 100 | > 100 | – | > 100 | > 100 | > 100 | > 100 | > 100 | > 100 |
| CC(=O)OCc1cc(CCC(=O)NCCNc2c3ccccc3nc3ccccc23)cc(COC(C)=O)c1O[Si](C)(C)C(C)(C)C | 11.7 | 8.06 | – | 4.99 | 31.3 | 29.3 | 28.1 | – | 11.6 | – | 30.1 | 34.2 | 20.5 | 9.37 | 34.7 | 18.2 | 21.9 | 6.2 | 5.68 | 21.1 |
| CCSc1n/c(=C\c2ccco2)c2nnnn12 | > 100 | > 100 | > 100 | > 100 | > 100 | > 100 | > 100 | > 100 | > 100 | > 100 | > 100 | > 100 | > 100 | > 100 | > 100 | > 100 | > 100 | – | > 100 | > 100 |
| O=C(CC(=O)Nc1cccc(C(=O)O)c1)Nc1cccc(C(=O)O)c1 | > 100 | > 100 | > 100 | > 100 | > 100 | > 100 | > 100 | > 100 | > 100 | > 100 | > 100 | > 100 | > 100 | – | > 100 | > 100 | > 100 | > 100 | > 100 | > 100 |
| CCC(=O)NC(Nc1cccc(F)c1C)(C(F)(F)F)C(F)(F)F | > 100 | > 100 | > 100 | > 100 | > 100 | > 100 | > 100 | > 100 | > 100 | > 100 | > 100 | > 100 | > 100 | 80.7 | > 100 | > 100 | > 100 | > 100 | > 100 | – |
| c1ccc2sc(C3(N4CCCC4)CCCCCC3)cc2c1 | 30.4 | 31.7 | 61.2 | 41.2 | 27.7 | – | > 100 | 33.9 | 31 | 35.9 | 34.4 | 51.9 | 24.2 | 25.7 | 40.6 | 37.9 | 32.1 | 35.4 | 27.6 | 31.8 |
| O=Cc1cc2c(cc1-c1c(C=O)ccc3c1OCO3)OCO2 | > 10 | > 10 | > 10 | > 10 | > 10 | > 10 | > 10 | > 10 | > 10 | > 10 | > 10 | > 10 | > 10 | – | > 10 | > 10 | > 10 | > 10 | > 10 | > 10 |
| CNn1c(-c2ccccc2)n[nH]c1=O | > 100 | > 100 | > 100 | > 100 | > 100 | > 100 | > 100 | > 100 | > 100 | > 100 | > 100 | > 100 | > 100 | – | > 100 | > 100 | > 100 | > 100 | > 100 | > 100 |
